Data taken from patent US20260232767A1, “INTERLEUKIN-23 RECEPTOR ANTAGONIST PEPTIDES FOR USE IN THE TREATMENT OF PSORIASIS” (Janssen Pharmaceutica NV, priority 2023, published 2026).

Test system: subjects with moderate-to-severe plaque psoriasis
Assay: Safety, adverse events, Example 2 through Week 56
Format: in vivo, human
Text: The LTE safety analysis was based on randomized participants in Example who entered the present long-term extension study and received at least one dose of study intervention (including a partial dose) during the study period.

[1] = 25 mg QD, LTE Safety analysis set
[2] = 50 mg QD, Week 16 through Week 56
[3] = 50 mg QD, LTE Safety analysis set

CC(=O)NCCCC[C@@H]1NC(=O)[C@H](Cc2c[nH]c3c(C)cccc23)NC(=O)[C@H]([C@@H](C)O)NC(=O)[C@H](CC(N)=O)NC(=O)[C@@H](NC(C)=O)C(C)(C)SSC(C)(C)[C@@H](C(=O)N[C@@H](Cc2ccc(OCCN)cc2)C(=O)N[C@@H](Cc2ccc3ccccc3c2)C(=O)NC2(C(=O)N[C@@H](CCC(=O)O)C(=O)N[C@@H](CC(N)=O)C(=O)N[C@@H](Cc3cccnc3)C(=O)N(C)CC(N)=O)CCOCC2)NC1=O [IL-23 receptor antagonist peptide, Ac-[Pen]*-N-T-[W(7-Me)]-[Lys(Ac)]-[Pen]*-Phe[4-(2-aminoethoxy)]-[2-Nal]-[THP]-E-N-[3-Pal]-Sarc-NH2 (*[Pen]-[Pen]* formdisulfidebond)]
Subjects with treatment-emergent serious AE: Neoplasms benign, malignant and unspecified (incl cysts and polyps) (25 mg QD, through Week 56): 0
Subjects with treatment-emergent serious AE: Nervous system disorders (25 mg QD, through Week 56): 0
Subjects with treatment-emergent serious AE: Non-cardiac chest pain (25 mg QD, through Week 56): 0
Subjects with treatment-emergent serious AE: Psychiatric disorders (25 mg QD, through Week 56): 0
Subjects with treatment-emergent serious AE: Respiratory, thoracic and mediastinal disorders (25 mg QD, through Week 56): 0
Subjects with treatment-emergent serious AE: Suicide attempt (25 mg QD, through Week 56): 0
Subjects with treatment-emergent serious AE: Tonsillar hypertrophy (25 mg QD, through Week 56): 0
Subjects with treatment-emergent serious AE: Uterine leiomyoma (25 mg QD, through Week 56): 0
Subjects with treatment-emergent serious AE: Ventricular dysfunction (25 mg QD, through Week 56): 0
Suicide attempt: number of subjects (25 mg QD, through Week 56): 0
Sunburn: number of subjects (25 mg QD, through Week 56): 0
Thrombocytopenia: % of subjects (25 mg QD, through Week 56): (2.3%)
Thrombocytopenia: number of subjects (25 mg QD, through Week 56): 1
Thrombocytosis: number of subjects (25 mg QD, through Week 56): 0
Tonsillar hypertrophy: number of subjects (25 mg QD, through Week 56): 0
Tooth fracture: number of subjects (25 mg QD, through Week 56): 0
Type 2 diabetes mellitus: number of subjects (25 mg QD, through Week 56): 0
Urinary tract disorder: number of subjects (25 mg QD, through Week 56): 0
Uterine leiomyoma: number of subjects (25 mg QD, through Week 56): 0
Vascular disorders: number of subjects (25 mg QD, through Week 56): 0
Ventricular dysfunction: number of subjects (25 mg QD, through Week 56): 0
Vertigo: % of subjects (25 mg QD, through Week 56): (2.3%)
Vertigo: number of subjects (25 mg QD, through Week 56): 1
Vitamin D deficiency: number of subjects (25 mg QD, through Week 56): 0
Subjects with 1 or more Serious Infections and infestations [1]: 0
Subjects with 1 or more Serious adverse events [1]: 0
Subjects with adverse event: Arthralgia [1]: 0
Subjects with adverse event: Hypertension [1]: 0
Subjects with adverse event: Influenza [1]: 0
Subjects with adverse event: Sinusitis [1]: 0
Subjects with adverse event: Vomiting [1]: 0
Subjects with serious adverse event: Cerebrovascular accident [1]: 0
Subjects with serious adverse event: Coronary artery disease [1]: 0
Subjects with serious adverse event: Diverticulitis [1]: 0
Subjects with serious adverse event: Foot deformity [1]: 0
Subjects with serious adverse event: Intervertebral disc protrusion [1]: 0
Subjects with serious adverse event: Ligament injury [1]: 0
Subjects with serious adverse event: Non-cardiac chest pain [1]: 0
Subjects with serious adverse event: Tonsillar hypertrophy [1]: 0
Subjects with serious adverse event: Uterine leiomyoma [1]: 0
Subjects with serious adverse event: Ventricular dysfunction [1]: 0
Subjects with 1 or more treatment-emergent serious adverse events (25 mg QD, Week 16-56): 0
Subjects with AE leading to discontinuation: Asthenia (25 mg QD, Week 16-56): 0
Subjects with AE leading to discontinuation: Chills (25 mg QD, Week 16-56): 0
Subjects with AE leading to discontinuation: Ear and labyrinth disorders (25 mg QD, Week 16-56): 0
Subjects with AE leading to discontinuation: Gastrointestinal disorders (25 mg QD, Week 16-56): 0
Subjects with AE leading to discontinuation: General disorders and administration site conditions (25 mg QD, Week 16-56): 0
Subjects with AE leading to discontinuation: Headache (25 mg QD, Week 16-56): 0
Subjects with AE leading to discontinuation: Insomnia (25 mg QD, Week 16-56): 0
Subjects with AE leading to discontinuation: Nervous system disorders (25 mg QD, Week 16-56): 0
Subjects with AE leading to discontinuation: Proctalgia (25 mg QD, Week 16-56): 0
Subjects with AE leading to discontinuation: Psoriasis (25 mg QD, Week 16-56): 0
Subjects with AE leading to discontinuation: Psychiatric disorders (25 mg QD, Week 16-56): 0
Subjects with AE leading to discontinuation: Skin and subcutaneous tissue disorders (25 mg QD, Week 16-56): 0
Subjects with AE leading to discontinuation: Vertigo (25 mg QD, Week 16-56): 0
Subjects with AE leading to discontinuation: Vomiting (25 mg QD, Week 16-56): 0
Subjects with COVID-19 associated AE of interest: SARS-CoV-2 test positive (25 mg QD, Week 16-56): 0
Subjects with treatment-emergent AE: Arthralgia (25 mg QD, Week 16-56): 0
Subjects with treatment-emergent AE: Hypertension (25 mg QD, Week 16-56): 0
Subjects with treatment-emergent AE: Influenza (25 mg QD, Week 16-56): 0
Subjects with treatment-emergent AE: Musculoskeletal and connective tissue disorders (25 mg QD, Week 16-56): 0
Subjects with treatment-emergent AE: Sinusitis (25 mg QD, Week 16-56): 0
Subjects with treatment-emergent AE: Vascular disorders (25 mg QD, Week 16-56): 0
Subjects with treatment-emergent AE: Vomiting (25 mg QD, Week 16-56): 0
Subjects with treatment-emergent serious AE: Cardiac disorders (25 mg QD, Week 16-56): 0
Subjects with treatment-emergent serious AE: Cerebrovascular accident (25 mg QD, Week 16-56): 0
Subjects with treatment-emergent serious AE: Coronary artery disease (25 mg QD, Week 16-56): 0
Subjects with treatment-emergent serious AE: Diverticulitis (25 mg QD, Week 16-56): 0
Subjects with treatment-emergent serious AE: Foot deformity (25 mg QD, Week 16-56): 0
Subjects with treatment-emergent serious AE: General disorders and administration site conditions (25 mg QD, Week 16-56): 0
Subjects with treatment-emergent serious AE: Infections and infestations (25 mg QD, Week 16-56): 0
Subjects with treatment-emergent serious AE: Injury, poisoning and procedural complications (25 mg QD, Week 16-56): 0
Subjects with treatment-emergent serious AE: Intervertebral disc protrusion (25 mg QD, Week 16-56): 0
Subjects with treatment-emergent serious AE: Ligament injury (25 mg QD, Week 16-56): 0
Subjects with treatment-emergent serious AE: Musculoskeletal and connective tissue disorders (25 mg QD, Week 16-56): 0
Subjects with treatment-emergent serious AE: Neoplasms benign, malignant and unspecified (incl cysts and polyps) (25 mg QD, Week 16-56): 0
Subjects with treatment-emergent serious AE: Nervous system disorders (25 mg QD, Week 16-56): 0
Subjects with treatment-emergent serious AE: Non-cardiac chest pain (25 mg QD, Week 16-56): 0
Subjects with treatment-emergent serious AE: Respiratory, thoracic and mediastinal disorders (25 mg QD, Week 16-56): 0
Subjects with treatment-emergent serious AE: Tonsillar hypertrophy (25 mg QD, Week 16-56): 0
Subjects with treatment-emergent serious AE: Uterine leiomyoma (25 mg QD, Week 16-56): 0
Subjects with treatment-emergent serious AE: Ventricular dysfunction (25 mg QD, Week 16-56): 0
Number of subjects with treatment-emergent AE: Cholelithiasis [2]: 0
Number of subjects with treatment-emergent AE: Ear and labyrinth disorders [2]: 0
Number of subjects with treatment-emergent AE: Endocrine disorders [2]: 0
Number of subjects with treatment-emergent AE: Eye disorders [2]: 0
Number of subjects with treatment-emergent AE: Eyelid skin dryness [2]: 0
Number of subjects with treatment-emergent AE: Goiter [2]: 0
Number of subjects with treatment-emergent AE: Hepatobiliary disorders [2]: 0
Number of subjects with treatment-emergent AE: Hypertransaminasemia [2]: 0
Number of subjects with treatment-emergent AE: Immune system disorders [2]: 1
Number of subjects with treatment-emergent AE: Insomnia [2]: 0
Number of subjects with treatment-emergent AE: Ocular cyst [2]: 0
Number of subjects with treatment-emergent AE: Psychiatric disorders [2]: 0
Number of subjects with treatment-emergent AE: Retinal vein occlusion [2]: 0
Number of subjects with treatment-emergent AE: Seasonal allergy [2]: 1
Number of subjects with treatment-emergent AE: Vertigo [2]: 0
Subjects with treatment-emergent AE: Immune system disorders (%) [2]: (2.6%)
Subjects with treatment-emergent AE: Seasonal allergy (%) [2]: (2.6%)
Subjects who discontinued study agent because of 1 or more adverse events [3]: 0
Subjects with 1 or more Serious Infections and infestations [3]: 0
Subjects with adverse event: Headache [3]: 0
Subjects with adverse event: Meniscus injury [3]: 0
Subjects with adverse event: Vomiting [3]: 0
Subjects with serious adverse event: Cerebrovascular accident [3]: 0
Subjects with serious adverse event: Diverticulitis [3]: 0
Subjects with serious adverse event: Intervertebral disc protrusion [3]: 0
Subjects with serious adverse event: Ligament injury [3]: 0
Subjects with serious adverse event: Tonsillar hypertrophy [3]: 0
Subjects with serious adverse event: Uterine leiomyoma [3]: 0
Subjects with serious adverse event: Ventricular dysfunction [3]: 0
Subjects with 1 or more treatment-emergent adverse events leading to discontinuation of study agent (50 mg QD, Week 16-56): 0
Subjects with AE leading to discontinuation: Alanine aminotransferase increased (50 mg QD, Week 16-56): 0
Subjects with AE leading to discontinuation: Aspartate aminotransferase increased (50 mg QD, Week 16-56): 0
Subjects with AE leading to discontinuation: Asthenia (50 mg QD, Week 16-56): 0
Subjects with AE leading to discontinuation: Chills (50 mg QD, Week 16-56): 0
Subjects with AE leading to discontinuation: Ear and labyrinth disorders (50 mg QD, Week 16-56): 0
Subjects with AE leading to discontinuation: Gamma-glutamyltransferase increased (50 mg QD, Week 16-56): 0
Subjects with AE leading to discontinuation: Gastrointestinal disorders (50 mg QD, Week 16-56): 0
Subjects with AE leading to discontinuation: General disorders and administration site conditions (50 mg QD, Week 16-56): 0
Subjects with AE leading to discontinuation: Headache (50 mg QD, Week 16-56): 0
